Experimental data published in patent publication US20240376093A1, “SULFOXIMINE COMPOUND AND USE THEREOF” (MEDSHINE DISCOVERY INC., priority 2021, published 2024).
Structures can show the parent of a compound that is named as a salt. Where two headings read alike, the source gives them in different places.

Key:
[1] = tested on: IFNα-stimulated phosphorylated STAT1; test: Assay of IFNα-stimulated phosphorylated STAT1 in hPBMC (flow cytometry, CD4+ T cells); format: cell-based, Human; conditions: IFN-α 1000 U/ml, pSTAT1 in CD4+ T cells
Procedure: Human peripheral blood mononuclear cells (hPBMC) were plated at a cell density of 1×10^5 cells/well and placed in a 37° C. incubator for 90 minutes. Different concentrations of compounds were then added to the cells, wherein the concentration of each compound started from […] and was serially diluted 5-fold to a total of 8 concentrations. Compounds and cells were incubated at 37° C. for 30 minutes. IFN-α (1000 U/ml) was used to stimulate hPBMC, and then flow cytometry was used to detect the level of phosphorylated STAT1 in CD4+ T cells to evaluate the inhibitory activity of compounds on the IFN-α pathway.

[2] = Pharmacokinetics of the compound in Balb/c mice; format: in vivo; conditions: mouse, plasma, male Balb/c mice, fasted; for AUC: read-out: AUC (exposure)
Procedure: • Purpose of assay: To assay the pharmacokinetics of the compound in Balb/c mice • Assay materials: Male Balb/c mice, fasted
The pharmacokinetic profiles of compound 1 in rodents after intravenous injection and oral administration were assayed using standard protocols.
Acclimatization/quarantine of Balb/c mice was performed for at least 3 days after arrival at the facility. Upon completion of the acclimatization/quarantine, a veterinarian or designee examined the health status of the Balb/c mice to evaluate whether the animals were suitable for the assay study. All Balb/c mice were fasted overnight before administration and resumed feeding 4 hours after administration. In the assay, the candidate compound was formulated into a homogeneous solution and given to Balb/c mice via a single intravenous injection and oral administration. The intravenous vehicle was a clear solution of 80% polyethylene glycol 400/20% water and the oral vehicle was a homogeneous suspension of ethanol/vitamin E polyethylene glycol succinate/polyethylene glycol 300 (5/5/90). The animals were weighed before administration and the administered volume was calculated based on body weight. Whole blood samples were collected by means of jugular vein puncture within 24 hours. All blood samples were immediately transferred to labeled commercial centrifuge tubes containing K2-EDTA. After blood samples were collected, the blood samples were centrifuged at 3200 g for 10 minutes at 4° C. The supernatant plasma was aspirated, quickly placed on dry ice, and then stored at −60° C. or lower for LC-MS/MS analysis. The data of blood drug concentration-time were analyzed using the WinNonlin software package (Version 6.3 and above) using a non-compartmental model. Pharmacokinetic parameters were calculated, including (if data permitted), but not limited to, peak concentration (Cmax), time to peak (Tmax), elimination half-life (T 1/2), area under plasma concentration-time curve (AUC), mean retention time (MRT), bioavailability, etc.

[3] = target: TYK2 protein (His-TVMV-TYK2 JH2 (575-869)) (Homo sapiens (Human), UniProt P29597); test: Tyk2 JH2 enzymatic activity assay (HTRF, fluorescein-labeled kinase tracer); format: binding; conditions: 90 minutes at room temperature
Procedure: The assay system was incubated at room temperature for 90 minutes. The resulting HTRF (homogeneous time-resolved fluorescence) signal, i.e., the ratio of the fluorescence intensity of the fluorescein acceptor (520 nm) and the terbium donor (495 nm) at the emission wavelength, was then measured on an Envision plate reader, and based on this, the IC50 value was calculated.

TYK2 protein (His-TVMV-TYK2 JH2 (575-869)), sequence (P29597 575-869, species assumed): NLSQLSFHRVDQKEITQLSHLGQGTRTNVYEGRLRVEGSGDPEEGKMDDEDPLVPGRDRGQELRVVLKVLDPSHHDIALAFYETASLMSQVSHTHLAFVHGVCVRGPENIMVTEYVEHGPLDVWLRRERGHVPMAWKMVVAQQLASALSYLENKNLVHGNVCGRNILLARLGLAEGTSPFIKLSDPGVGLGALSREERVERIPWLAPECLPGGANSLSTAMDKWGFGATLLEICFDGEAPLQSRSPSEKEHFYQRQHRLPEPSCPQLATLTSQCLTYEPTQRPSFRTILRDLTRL

Structure (SMILES)	IC50 [3] [nM]	other results
[2H]C([2H])([2H])CC(=O)c1cnc(NC(=O)C2CC2)cc1Nc1cccc(-c2cnc(N=S(C)(C)=O)cn2)c1OC [Compound 1]		IC50 [1]: 1.1 nM; AUC ([2]; IV (1 mg/kg)): 9.38 µM·h; clearance ([2]; IV (1 mg/kg), read-out: Cl (clearance rate)): 3.39 mL/min/kg; half-life ([2]; IV (1 mg/kg), read-out: T1/2 (half-life) (converted)): 1.61 h; Vd ([2]; IV (1 mg/kg), read-out: Vd (volume of distribution)): 0.45 L/kg; AUC ([2]; PO (10 mg/kg)): 47.2 µM·h; Cmax ([2]; PO (10 mg/kg), read-out: Cmax (maximum concentration)): 13.4 µM; bioavailability ([2]; PO (10 mg/kg), read-out: F (bioavailability)): 51.4%; Tmax ([2]; PO (10 mg/kg), read-out: Tmax (time to peak concentration)): 0.75 h
[2H]C([2H])([2H])NC(=O)c1nnc(NC(=O)C2CC2)cc1Nc1cccc(-c2cnc(N=S(C)(C)=O)cn2)c1OC [Compound 2]	0.06	IC50 ([1]; Homo sapiens, CD4+ T): 0.2 nM
[2H]C([2H])([2H])NC(=O)c1cnc(NC(=O)C2CC2)cc1Nc1cccc(-c2cnc(N=S(C)(C)=O)cn2)c1OC [Compound 3]	0.03	IC50 ([1]; Homo sapiens, CD4+ T): 2.1 nM
CCC(=O)c1cnc(NC(=O)C2CC2)cc1Nc1cccc(-c2cnc(N=S(C)(C)=O)cn2)c1OC [Compound 4]	0.07	IC50 ([1]; Homo sapiens, CD4+ T): 0.6 nM
[2H]C([2H])([2H])CC(=O)c1cnc(NC(=O)C2CC2)cc1Nc1cccc(-c2cnc(N=S3(=O)CCOCC3)cn2)c1OC [Compound 5]	0.07	
[2H]C([2H])([2H])CC(=O)c1cnc(NC(=O)C2CC2)cc1Nc1cccc(-c2cnc(N=S3(=O)CCC3)cn2)c1OC [Compound 6]	0.18	
[2H]C([2H])([2H])CC(=O)c1cnc(NC(=O)C2CC2)cc1Nc1cccc(-c2cnc(N=S3(=O)CCCC3)cn2)c1OC [Compound 7]	0.09	
[2H]C([2H])([2H])CC(=O)c1cnc(NC(=O)C2CC2)cc1Nc1cccc(-c2cnc(N=S3(=O)CCN(C)CC3)cn2)c1OC [Compound 8]	0.15	IC50 ([1]; Homo sapiens, CD4+ T): 0.4 nM
[2H]C([2H])([2H])CC(=O)c1cnc(NC(=O)C2CC2)cc1Nc1cccc(-c2cnc(N=S(C)(C)=O)cn2)c1OC [Compound 9]	0.07	IC50 [1]: 0.5 nM
[2H]C([2H])([2H])CC(=O)c1cnc(Nc2ccccn2)cc1Nc1cccc(-c2cnc(N=S(C)(C)=O)cn2)c1OC [Compound 10]	0.06	
[2H]C([2H])([2H])CC(=O)c1cnc(Nc2ccc(F)cn2)cc1Nc1cccc(-c2cnc(N=S(C)(C)=O)cn2)c1OC [Compound 11]	0.11	
[2H]C([2H])([2H])CC(=O)c1cnc(Nc2cccc(C#N)n2)cc1Nc1cccc(-c2cnc(N=S(C)(C)=O)cn2)c1OC [Compound 12]	0.05	
[2H]C([2H])([2H])CC(=O)c1cnc(Nc2cncc(C)n2)cc1Nc1cccc(-c2cnc(N=S(C)(C)=O)cn2)c1OC [Compound 13]	0.12	
[2H]C([2H])([2H])CC(=O)c1cnc(NC(=O)C2CCC2)cc1Nc1cccc(-c2cnc(N=S(C)(C)=O)cn2)c1OC [Compound 14]	0.25	
[2H]C([2H])([2H])CC(=O)c1cnc(NC(=O)C2CC2)cc1Nc1cc(F)cc(-c2cnc(N=S(C)(C)=O)cn2)c1OC [Compound 15]	0.08	
[2H]C([2H])([2H])CC(=O)c1cnc(NC(=O)C2CC2)cc1Nc1nccc(-c2cnc(N=S(C)(C)=O)cn2)c1OC [Compound 16]	0.08	

Structure (SMILES)	IC50 [3] [nM]	other results
COCC(=O)c1cnc(NC(=O)C2CC2)cc1Nc1cccc(-c2cnc(N=S(C)(C)=O)cn2)c1OC [Compound 17]	0.29	
COc1c(Nc2cc(NC(=O)C3CC3)ncc2C(C)=O)cccc1-c1cnc(N=S(C)(C)=O)cn1 [Compound 18]	0.09	
COc1c(Nc2cc(NC(=O)C3CC3)ncc2C(=O)C2CC2)cccc1-c1cnc(N=S(C)(C)=O)cn1 [Compound 19]	0.12	
[2H]C([2H])([2H])CC(=O)c1cnc(NC(=O)N2CCC2)cc1Nc1cccc(-c2cnc(N=S(C)(C)=O)cn2)c1OC [Compound 20]	0.19	
[2H]C([2H])([2H])CC(=O)c1cnc(NC(=O)C2CC2)cc1Nc1cc(C)cc(-c2cnc(N=S(C)(C)=O)cn2)c1OC [Compound 21]	0.13	
[2H]C([2H])([2H])CC(=O)c1cnc(NC(=O)C2CC2)cc1Nc1cc(OC)cc(-c2cnc(N=S(C)(C)=O)cn2)c1OC [Compound 22 hydrochloride]	0.14	
[2H]C([2H])([2H])CC(=O)c1cnc(NC(=O)NC2CC2)cc1Nc1cccc(-c2cnc(N=S(C)(C)=O)cn2)c1OC [Compound 23]	0.13	
[2H]C([2H])([2H])CC(=O)c1cnc(NC(=O)C2CC2)cc1Nc1cccc(-c2cnc(N=S(=O)(CC)CC)cn2)c1OC [Compound 27]	0.09	
[2H]C([2H])([2H])CC(=O)c1cnc(NC(=O)c2cn[nH]c2)cc1Nc1cccc(-c2cnc(N=S(C)(C)=O)cn2)c1OC [Compound 28]	0.17	
[2H]C([2H])([2H])CC(=O)c1cnc(Nc2cc3cc[nH]c3cn2)cc1Nc1cccc(-c2cnc(N=S(C)(C)=O)cn2)c1OC [Compound 29]	0.11	
[2H]C([2H])([2H])CC(=O)c1cnc(NC(=O)C23CC(C2)C3)cc1Nc1cccc(-c2cnc(N=S(C)(C)=O)cn2)c1OC [Compound 30]	0.56	
[2H]C([2H])([2H])CC(=O)c1cnc(NC(=O)C2C3COCC32)cc1Nc1cccc(-c2cnc(N=S(C)(C)=O)cn2)c1OC (centres unmarked) [Compound 31]	0.34	
[2H]C([2H])([2H])CC(=O)c1cnc(NC(=O)C2CC3(CCC3)C2)cc1Nc1cccc(-c2cnc(N=S(C)(C)=O)cn2)c1OC [Compound 32]	0.31	
[2H]C([2H])([2H])CC(=O)c1cnc(NC(=O)C2CC3CCC2C3)cc1Nc1cccc(-c2cnc(N=S(C)(C)=O)cn2)c1OC (centres unmarked) [Compound 33]	0.3	
[2H]C([2H])([2H])CC(=O)c1cnc(Nc2ccn(C)c(=O)c2)cc1Nc1cccc(-c2cnc(N=S(C)(C)=O)cn2)c1OC [Compound 35]	0.76	
